Source: EP4721737A1, “USE OF PHARMACEUTICAL COMPOSITION COMPRISING COMPOUND HAVING BIS(AZANYLYLIDENE) SULFONYL STRUCTURE FOR TREATING ANEMIA-RELATED DISEASES” (Scinnohub Pharmaceutical Co., Ltd., priority 2023, dated 2024)

What was measured:
recombinant human PKR = recombinant human PKR (Homo sapiens, UniProt P30613); test: pyruvate kinase (PKR) activity test, activation of recombinant enzyme (fluorescence kit); type: biochemical
Procedure: To test the activation effect of the compound of the present disclosure on recombinant human PKR.
3.1 A recombinant human PKR enzyme solution was prepared at a concentration of 60 ng/well (a 20 µL reaction system), and 5 µL of the solution was added into each well of a black transparent bottom 384-well plate.
3.2 Compound solutions were prepared at different concentrations, with the final concentrations of 1000/300/100 nM (containing 1% DMSO). Each 5 µL of the compound solution was added into the plate in step 3.1 and mixed well. The plate was incubated at room temperature for 10 min.
3.3 A reaction system was prepared according to the instructions of a kit (as shown in the table below), and 10 µL of the reaction system was added into each well of the 384-well plate, and mixed uniformly with the solution in step 3.2.
3.4 The 384-well plate was placed on a microplate reader to detect the fluorescence value at 540/590 nm, where the value was read every 2 minutes and the detection was conducted continuously for 1 hour.
3.5 The Slope value within the detection time was calculated, and the 1% DMSO well was used as a control well to calculate a compound activation rate. Activation rate % = (Slopeofcompoundwell/Slopeofcontrolwell) × 100% [formula]
With the log value of the compound concentration as the X axis and the percentage activation rate as the Y axis, a dose-effect curve was fitted with the log(agonist) vs. response-variable slope of the analysis software GraphPad Prism 5, and the AC50 value of the activity of each compound against PKR was obtained. Y = min + (max−min)/(1+10^(∧)((LogAC50−X)×Hillslope)). [formula]

[1] = target: T1, PKR in ex vivo red blood cells from healthy individuals (Homo sapiens, UniProt P30613); test: ex vivo pyruvate kinase (PKR) activity experiment, red blood cells of healthy individuals; type: cell-based; settings: 3 hours co-cultivation
T1 construct: endogenous in cells; host or cells: human red blood cells isolated from fresh peripheral blood of healthy individuals
Procedure: To test the effects of the compound of the present disclosure on PKR activation in ex vivo red blood cells from healthy individuals and patients with thalassemia.
• i. 5 g of glucose, 85 mg of adenine, and 2.625 g of mannitol were weighed and added into a 50 mL centrifuge tube. 40 mL of PBS was added to dissolve (sonicate for 30 minutes until completely dissolved). The solution was filtered through a 0.22 µm filter, then added to 460 mL of sterile PBS and mixed thoroughly.
• i. Fresh human peripheral blood was collected. K2EDTA was used as the anticoagulant. 1 part anticoagulant with 9 parts blood was mixed, then centrifuged at 500 g for 10 minutes at room temperature to remove the plasma. • ii. Packed red blood cells: 1.5 volumes of PBS were added, then centrifuged at 2000 ×g for 5 minutes at room temperature. After centrifugation, the supernatant was removed. This step was repeated twice. • iii. Diluted red blood cells: 1.5 volumes of PBS were added, then resuspended and mixed thoroughly. • iv. The diluted red blood cells were slowly added to 0.5 volume of 70% isotonic solution (e.g., 7.5 mL of diluted red blood cells + 3 mL of 70% isotonic solution Percoll) and centrifuged at 4000 ×g for 20 minutes at 4°C. • v. The supernatant was removed. The red blood cells at the bottom were washed once with 4-5 mL of PBS to elute the Percoll gel, and then centrifuged at 2000 ×g for 5 minutes at room temperature. • vi. The supernatant was removed. The red blood cells were counted and then diluted in AGAM medium containing 10% FBS to a density of 2 × 10^8 cells/mL for storage at 4°C.
i. The red blood cells were seeded into a 96-well plate at a uniform density of 1 × 10^7 cells/mL, with 100 µL per well. The test compounds (dissolved in DMSO) were diluted and added to the cell culture medium, resulting in final compound concentrations of 3000, 1000, 300, 100, 10, 3, and 1 nM (with 1% DMSO). The cells and compounds were co-cultivated for 3 hours in a 37°C incubator with 5% CO2. Subsequently, the plate was centrifuged at 2000 g for 20 minutes, and the supernatant was discarded. 100 µL of red blood cell lysis buffer was added to the cell pellet, vortexed for 20 minutes, and centrifuged at 4000 g for 5 minutes. The supernatant was collected for analysis. ii. The reaction system was prepared according to the kit instructions (shown as the table below), 10 µL of the reaction system was added to each well of a 384-well plate, and 10 µL of red blood cell lysis buffer was took and mixed well (20 µL reaction system).
iii. A black, transparent-bottomed 384-well plate was placed in a microplate reader to measure fluorescence at 540/590 nm. The fluorescence was read every 2 minutes for 1 hour.
i. The Slope value was calculated over the assay time. Compound activation percentage was calculated using the 1% DMSO well as the control well. Activation percentage = (Slope of compound well / Slope of control well) × 100% ii. Dose-response curve was fit using the logarithmic compound concentration on the X-axis and the percent activation percentage on the Y-axis, the log(agonist) vs. response - variable slope function in GraphPad Prism 5 was used to determine the AC50 value for each compound on PKR activity. Y = min + (max−min)/(1+10^(∧)((LogAC50−X)×Hillslope)). [formula] The PKR agonist effects of the compound of the present disclosure on ex vivo red blood cells from healthy individuals and thalassemia patients were determined using the above assay. The AC50 values measured on ex vivo red blood cells from healthy individuals are as follows (A represents 0-100 nM, B represents 101-300 nM, and C represents 300-1000 nM): […]

T1 sequence (P30613 whole entry): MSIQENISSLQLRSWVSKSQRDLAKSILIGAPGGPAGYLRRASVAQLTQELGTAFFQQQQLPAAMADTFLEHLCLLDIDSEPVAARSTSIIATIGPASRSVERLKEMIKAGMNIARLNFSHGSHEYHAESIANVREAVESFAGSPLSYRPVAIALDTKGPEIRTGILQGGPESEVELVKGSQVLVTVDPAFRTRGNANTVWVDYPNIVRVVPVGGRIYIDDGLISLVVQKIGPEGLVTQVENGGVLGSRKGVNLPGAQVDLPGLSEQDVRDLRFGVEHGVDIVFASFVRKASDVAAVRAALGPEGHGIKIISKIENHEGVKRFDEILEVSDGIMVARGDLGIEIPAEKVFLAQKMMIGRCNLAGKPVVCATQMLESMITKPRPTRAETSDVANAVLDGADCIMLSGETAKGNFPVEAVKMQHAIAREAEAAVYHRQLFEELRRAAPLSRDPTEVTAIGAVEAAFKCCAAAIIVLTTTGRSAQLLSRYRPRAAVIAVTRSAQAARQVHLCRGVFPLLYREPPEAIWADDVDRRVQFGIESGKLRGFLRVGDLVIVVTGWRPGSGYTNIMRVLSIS
Sequence of recombinant human PKR (P30613 whole entry): as above

SMILES | AC50 (recombinant human PKR) | AC50 [1]
O=C(Cc1ccccc1)N1CC(=C2CN(S(=O)(=O)c3ccc4ncsc4c3)C2)C1 [Compound 47, 1-(1'-(benzo[d]thiazol-6-ylsulfonyl)-1',4'-dihydro-2H,2'H-[3,3'-diazetidinylidene]-1(4H)-yl)-2-phenyl ethan-1-one] | 0.3 to 1 µM | 0.3 to 1 µM
O=C(c1c[nH]c2ccccc12)N1CC(=C2CN(S(=O)(=O)c3ccc4ncsc4c3)C2)C1 [Compound 52, (1'-(benzo[d]thiazol-6-ylsulfonyl)-1',4'-dihydro-2H,2'H-[3,3'-diazetidinylidene]-1(4H)-yl)(1H-indol-3-yl)methanone] | 0.3 to 1 µM | 0.3 to 1 µM
COc1ccc(C(CO)C(=O)N2CC(=C3CN(S(=O)(=O)c4ccccn4)C3)C2)cc1 (centres unmarked) [Compound 53, 3-hydroxy-2-(4-methoxyphenyl)-1-(1'-(pyridin-2-ylsulfonyl)-1',4'-dihydro-2H,2'H-[3,3'-diazetidinylidene]-1(4H)-yl)propan-1-one] | 0.3 to 1 µM | 0.101 to 0.3 µM
O=C(N1CC(=C2CN(S(=O)(=O)c3ccccn3)C2)C1)C1(c2ccccc2)CCOCC1 [Compound 58] | 0.101 to 0.3 µM | 0.101 to 0.3 µM
O=C(C(CO)c1cccnc1)N1CC(=C2CN(S(=O)(=O)c3ccccn3)C2)C1 (centres unmarked) [Compound 60, 3-hydroxy-1-(1'-(pyridin-2-ylsulfonyl)-1',4'-dihydro-2H,2'H-[3,3'-diazetidinylidene]-1(4H)-yl)-2-(pyridin-3-yl)propan-1-one] | 0.3 to 1 µM | 0.3 to 1 µM
CC(C)(O)C(C(=O)N1CC(=C2CN(S(=O)(=O)c3ccccn3)C2)C1)c1ccccc1 (centres unmarked) [Compound 62, 3-hydroxy-3-methyl-2-phenyl-1-(1'-(pyridin-2-ylsulfonyl)-1',4'-dihydro-2H,2'H-[3,3'-diazetidinylidene]-1(4H)-yl)butan-1-one] | 0.3 to 1 µM | 0.3 to 1 µM
CCOc1ccc(S(=O)(=O)N2CC(=C3CN(C(=O)[C@H](CO)c4ccccc4)C3)C2)nc1 [Compound 72, (S)-1-(1'-((5-ethoxypyridin-2-yl)sulfonyl)-1',4'-dihydro-2H,2'H-[3,3'-diazetidinylidene]-1(4H)-yl)-3-hydroxy-2-phenylpropan-1-one] | < 0.1 µM | < 0.1 µM
O=C(C(CF)c1ccccc1)N1CC(=C2CN(S(=O)(=O)c3ccccn3)C2)C1 (centres unmarked) [Compound 73, 3-fluoro-2-phenyl-1-(1'-(pyridin-2-ylsulfonyl)-1',4'-dihydro-2H,2'H-[3,3'-diazetidinylidene]-1(4H)-yl)propan-1-one] | 0.101 to 0.3 µM | 0.101 to 0.3 µM
O=C(C(CO)c1ccc(F)cc1F)N1CC(=C2CN(S(=O)(=O)c3ccccn3)C2)C1 (centres unmarked) [Compound 74, 2-(2,4-difluorophenyl)-3-hydroxy-1-(1'-(pyridin-2-ylsulfonyl)-1',4'-dihydro-2H,2'H-[3,3'-diazetidinylidene]-1(4H)-yl)propan-1-one] | < 0.1 µM | < 0.1 µM
O=C(C(CO)c1ccc(C(F)(F)F)cc1)N1CC(=C2CN(S(=O)(=O)c3ccccn3)C2)C1 (centres unmarked) [Compound 78, 3-hydroxy-1-(1'-(pyridin-2-ylsulfonyl)-1',4'-dihydro-2H,2'H-[3,3'-diazetidinylidene]-1(4H)-yl)-2-(4-(trifluoromethyl)phenyl)propan-1-one] | 0.3 to 1 µM | 0.3 to 1 µM
O=C([C@H](CO)c1ccccc1)N1CC(=C2CN(S(=O)(=O)c3ccc(OC(F)F)cn3)C2)C1 [Compound 80, (S)-1-(1'-((5-(difluoromethoxy)pyridin-2-yl)sulfonyl)-1',4'-dihydro-2H,2'H-[3,3'-diazetidinylidene]-1 (4H)-yl)-3-hydroxy-2-phenylpropan-1-one] | < 0.1 µM | < 0.1 µM
COc1ccc(S(=O)(=O)N2CC(=C3CN(C(=O)[C@H](CO)c4ccc(F)cc4F)C3)C2)nc1 [Compound 87, (S)-2-(2,4-difluorophenyl)-3-hydroxy-1-(1'-((5-methoxypyridin-2-yl)sulfonyl)-1',4'-dihydro-2H,2'H-[3,3'-diazetidinylidene]-1(4H)-yl)propan-1-one] | < 0.1 µM | < 0.1 µM

More lines, now with the values ahead:

AC50 (recombinant human PKR) | AC50 [1] | SMILES
< 0.1 µM | < 0.1 µM | O=C(C(CO)c1ccc(F)cc1)N1CC(=C2CN(S(=O)(=O)c3ccc4ncsc4c3)C2)C1 [Compound 50, (S)-1-(1'-(benzo[d]thiazol-6-ylsulfonyl)-1',4'-dihydro-2H,2'H-[3,3'-diazetidinylidene]-1(4H)-yl)-2-(4-fluorophenyl)-3-hydroxypropan-1-one]
0.3 to 1 µM | 0.3 to 1 µM | O=C(c1c[nH]c2ccccc12)N1CC(=C2CN(S(=O)(=O)c3ccccn3)C2)C1 [Compound 56, (1H-indol-3-yl)(1'-(pyridin-2-ylsulfonyl)-1',4'-dihydro-2H,2'H-[3,3'-diazetidinylidene]-1(4H)-yl)met hanone]
0.101 to 0.3 µM | < 0.1 µM | Cc1ccc(C(CO)C(=O)N2CC(=C3CN(S(=O)(=O)c4ccccn4)C3)C2)cc1 (centres unmarked) [Compound 57, 3-hydroxy-1-(1'-(pyridin-2-ylsulfonyl)-1',4'-dihydro-2H,2'H-[3,3'-diazetidinylidene]-1(4H)-yl)-2-(p-tolyl)propan-1-one]
0.3 to 1 µM | 0.3 to 1 µM | O=C(C1NCc2ccccc21)N1CC(=C2CN(S(=O)(=O)c3ccc4ncsc4c3)C2)C1 (centres unmarked) [Compound 64, (1'-(benzothiazol-6-ylsulfonyl)-1',4'-dihydro-2H,2'H-[3,3'-diazetidinylidene]-1(4H)-yl)(isoindolin-1-yl)methanone]
< 0.1 µM | < 0.1 µM | COc1ccc(S(=O)(=O)N2CC(=C3CN(C(=O)[C@H](CO)c4ccccc4)C3)C2)nc1 [Compound 67, (S)-3-hydroxy-1-(1'-((5-methoxypyridin-2-yl)sulfonyl)-1',4'-dihydro-2H,2'H-[3,3'-diazetidinylidene]-1(4H)-yl)-2-phenylpropan-1-one]
< 0.1 µM | 0.101 to 0.3 µM | O=C(C(CO)c1ccc2c(c1)NCCO2)N1CC(=C2CN(S(=O)(=O)c3ccccn3)C2)C1 (centres unmarked) [Compound 79, 2-(3,4-dihydro-2H-benzo[b][1,4]oxazin-6-yl)-3-hydroxy-1-(1'-(pyridin-2-ylsulfonyl)-1',4'-dihydro-2 H,2'H-[3,3'-diazetidinylidene]-1(4H)-yl)propan-1-one]
0.101 to 0.3 µM | < 0.1 µM | O=C(N1CC(=C2CN(S(=O)(=O)c3ccccn3)C2)C1)C1(c2ccccc2)COC1 [Compound 89, (3-phenyloxetan-3-yl)(1'-(pyridin-2-ylsulfonyl)-1',4'-dihydro-2H,2'H-[3,3'-diazetidinylidene]-1(4H)-yl)methanone]
